# Data published in patent US6525001B1, “Substituted pyrimidine and pyridine herbicides” (Mid-American Commercialization Corporation, priority 1997, dated 2003).
# What was measured:
# Format in all cases: in vivo
# Design in all cases: key: 0 is no effect; 10 is complete control
# [1] = test system: sugar beet (Beta vulgaris); assay: Test B pre-/postemergence
# Outline: (§1)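 Scored visually 0 (none) to 10 (complete control) against untreated plants after twelve to sixteen greenhouse days. Test chemicals, formulated in surfactant-containing non-phytotoxic solvent, applied to soil after planting and, separately, onto 1- to 4-leaf (2–18 cm) plants.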
# [2] = test system: bedstraw (Galium aparine); assay: Test B pre-/postemergence; details: for Bedstraw plant response rating: Preemergence
# Outline: as §1
# [3] = test system: giant foxtail (Setaria faberii); assay: Test B pre-/postemergence
# Outline: as §1
# [4] = test system: soybean (Glycine max); assay: Test B pre-/postemergence
# Outline: as §1
# [5] = test system: pigweed (Amaranthus retroflexus); assay: Test B pre-/postemergence
# Outline: as §1
# [6] = test system: purple nutsedge (Cyperus rotundus); assay: Test B pre-/postemergence
# Outline: as §1
# [7] = test system: rape (Brassica napus); assay: Test B pre-/postemergence
# Outline: as §1
# [8] = test system: wild oat (Avena fatua); assay: Test B pre-/postemergence
# Outline: as §1
# [9] = test system: momingglory (Ipomoea hederacea); assay: Test B pre-/postemergence
# Outline: as §1
# [10] = test system: cocklebur (Xanthium strumarium); assay: Test B pre-/postemergence; details: for Cocklebur plant response rating: Preemergence
# Outline: as §1
# [11] = test system: broadleaf signalgrass (Brachiaria decumbens); assay: Test B pre-/postemergence; details: for B. signalgrass plant response rating: Preemergence
# Outline: as §1
# [12] = test system: blackgrass (Alopecurus myosuroides); assay: Test B pre-/postemergence; details: for Blackgrass plant response rating: Preemergence
# Outline: as §1
# [13] = test system: crabgrass (Digitaria sanguinalis); assay: Test B pre-/postemergence; details: for Crabgrass plant response rating: Preemergence
# Outline: as §1
# [14] = test system: velvetleaf (Abutilon theophrasti); assay: Test B pre-/postemergence
# Outline: as §1
# [15] = test system: wheat (Triticum aestivum); assay: Test B pre-/postemergence
# Outline: as §1
# [16] = test system: corn (Zea mays); assay: Test B pre-/postemergence; details: for Corn plant response rating: Preemergence
# Outline: as §1
# [17] = test system: smallflower flatsedge (Cyperus difformis); assay: Test B flood test
# Outline: (§2)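 Flood test on plants grown to the 2-leaf stage; treated plants kept in greenhouse twelve to sixteen days, then visually rated against controls on a 0 (no effect) to 10 (complete control) scale.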
# [18] = test system: rice (Oryza sativa); assay: Test B flood test
# Outline: as §2
# [19] = test system: duck salad (Heteranthera limosa); assay: Test B flood test
# Outline: as §2
# [20] = test system: bamyardgrass (Echinochloa crus-galli); assay: Test B flood test
# Outline: as §2
# [21] = Rate 250 g/ha, Postemergence (so in the source)
# [22] = Rate 62 g/ha, Postemergence (flood test)
# [23] = Rate 125 g/ha, Postemergence section (flood test species)
# [24] = Rate 250 g/ha, Postemergence (flood test species)
# [25] = Rate 125 g/ha, Postemergence, flood test
smiles,measurement,setting,value
Cc1cnc(-c2cccc(C(F)(F)F)c2)nc1Cc1cccc(C#N)c1 [Compound 39],"Plant response rating, Sugarbeets","[1]; Rate 62 g/ha, Postemergence",7
same,Sugarbeets plant response rating,"[1]; Rate 62 g/ha, Preemergence",0
same,Sugarbeets plant response rating,"[1]; Rate 125 g/ha, Postemergence",9
same,"Plant response rating, Sugarbeets","[1]; Rate 125 g/ha, Preemergence",0
same,"Plant response rating, Sugarbeets","[1]; Rate 250 g/ha, Postemergence",10
same,"Plant response rating, Sugarbeets",[1]; [21],0
same,"Plant response rating, Bedstraw","[2]; Rate 62 g/ha, Postemergence",3
same,Bedstraw plant response rating,[2]; Rate 62 g/ha,0
same,"Plant response rating, Bedstraw","[2]; Rate 125 g/ha, Postemergence",3
same,Bedstraw plant response rating,[2]; Rate 125 g/ha,0
same,"Plant response rating, Bedstraw","[2]; Rate 250 g/ha, Postemergence",4
same,"Plant response rating, Bedstraw",[2]; [21],0
same,"Plant response rating, Giant foxtail","[3]; Rate 62 g/ha, Postemergence",0
same,Giant foxtail plant response rating,"[3]; Rate 62 g/ha, Preemergence",0
same,Giant foxtail plant response rating,"[3]; Rate 125 g/ha, Postemergence",1
same,Giant foxtail plant response rating,"[3]; Rate 125 g/ha, Preemergence",0
same,"Plant response rating, Giant foxtail","[3]; Rate 250 g/ha, Postemergence",1
same,"Plant response rating, Giant foxtail",[3]; [21],0
same,"Plant response rating, Soybean","[4]; Rate 62 g/ha, Postemergence",1
same,Soybean plant response rating,"[4]; Rate 62 g/ha, Preemergence",0
same,Soybean plant response rating,"[4]; Rate 125 g/ha, Postemergence",1
same,"Plant response rating, Soybean","[4]; Rate 125 g/ha, Preemergence",0
same,"Plant response rating, Soybean","[4]; Rate 250 g/ha, Postemergence",2
same,"Plant response rating, Soybean",[4]; [21],0
same,"Plant response rating, Redroot pigweed","[5]; Rate 62 g/ha, Postemergence",2
same,Redroot pigweed plant response rating,"[5]; Rate 62 g/ha, Preemergence",0
same,Redroot pigweed plant response rating,"[5]; Rate 125 g/ha, Postemergence",2
same,Redroot pigweed plant response rating,"[5]; Rate 125 g/ha, Preemergence",0
same,"Plant response rating, Redroot pigweed","[5]; Rate 250 g/ha, Postemergence",3
same,"Plant response rating, Redroot pigweed",[5]; [21],0
same,"Plant response rating, Nutsedge","[6]; Rate 62 g/ha, Postemergence",0
same,Nutsedge plant response rating,"[6]; Rate 62 g/ha, Preemergence",0
same,Nutsedge plant response rating,"[6]; Rate 125 g/ha, Postemergence",0
same,Nutsedge plant response rating,"[6]; Rate 125 g/ha, Preemergence",0
same,"Plant response rating, Nutsedge","[6]; Rate 250 g/ha, Postemergence",0
same,"Plant response rating, Nutsedge",[6]; [21],0
same,"Plant response rating, Rape","[7]; Rate 62 g/ha, Postemergence",1
same,Rape plant response rating,"[7]; Rate 62 g/ha, Preemergence",0
same,Rape plant response rating,"[7]; Rate 125 g/ha, Postemergence",1
same,Rape plant response rating,"[7]; Rate 125 g/ha, Preemergence",0
same,"Plant response rating, Rape","[7]; Rate 250 g/ha, Postemergence",4
same,"Plant response rating, Rape",[7]; [21],0
same,Wild oats plant response rating,"[8]; Rate 62 g/ha, Postemergence",1
same,Wild oats plant response rating,"[8]; Rate 62 g/ha, Preemergence",0
same,Wild oats plant response rating,"[8]; Rate 125 g/ha, Postemergence",1
same,"Plant response rating, Wild oats","[8]; Rate 125 g/ha, Preemergence",0
same,"Plant response rating, Wild oats","[8]; Rate 250 g/ha, Postemergence",1
same,"Plant response rating, Wild oats",[8]; [21],0
same,"Plant response rating, Morningglory","[9]; Rate 62 g/ha, Postemergence",1
same,Morningglory plant response rating,"[9]; Rate 62 g/ha, Preemergence",0
same,Morningglory plant response rating,"[9]; Rate 125 g/ha, Postemergence",1
same,Morningglory plant response rating,"[9]; Rate 125 g/ha, Preemergence",0
same,"Plant response rating, Morningglory","[9]; Rate 250 g/ha, Postemergence",1
same,"Plant response rating, Morningglory",[9]; [21],0
same,"Plant response rating, Cocklebur","[10]; Rate 62 g/ha, Postemergence",2
same,Cocklebur plant response rating,[10]; Rate 62 g/ha,0
same,"Plant response rating, Cocklebur","[10]; Rate 125 g/ha, Postemergence",2
same,Cocklebur plant response rating,[10]; Rate 125 g/ha,0
same,"Plant response rating, Cocklebur","[10]; Rate 250 g/ha, Postemergence",5
same,"Plant response rating, Cocklebur",[10]; [21],0
same,"Plant response rating, B. signalgrass","[11]; Rate 62 g/ha, Postemergence",1
same,B. signalgrass plant response rating,[11]; Rate 62 g/ha,0
same,"Plant response rating, B. signalgrass","[11]; Rate 125 g/ha, Postemergence",1
same,B. signalgrass plant response rating,[11]; Rate 125 g/ha,0
same,"Plant response rating, B. signalgrass","[11]; Rate 250 g/ha, Postemergence",1
same,"Plant response rating, B. signalgrass","[11]; Rate 250 g/ha, Postemergence as printed in head r139 (second section for compounds 26-50)",0
same,"Plant response rating, Blackgrass","[12]; Rate 62 g/ha, Postemergence",1
same,Blackgrass plant response rating,[12]; Rate 62 g/ha,0
same,"Plant response rating, Blackgrass","[12]; Rate 125 g/ha, Postemergence",1
same,Blackgrass plant response rating,[12]; Rate 125 g/ha,0
same,"Plant response rating, Blackgrass","[12]; Rate 250 g/ha, Postemergence",1
same,"Plant response rating, Blackgrass",[12]; [21],0
same,"Plant response rating, Crabgrass","[13]; Rate 62 g/ha, Postemergence",0
same,Crabgrass plant response rating,[13]; Rate 62 g/ha,0
same,"Plant response rating, Crabgrass","[13]; Rate 125 g/ha, Postemergence",0
same,Crabgrass plant response rating,[13]; Rate 125 g/ha,0
same,"Plant response rating, Crabgrass","[13]; Rate 250 g/ha, Postemergence",1
same,"Plant response rating, Crabgrass",[13]; [21],0
same,"Plant response rating, Velvetleaf","[14]; Rate 62 g/ha, Postemergence",0
same,Velvetleaf plant response rating,"[14]; Rate 62 g/ha, Preemergence",0
same,Velvetleaf plant response rating,"[14]; Rate 125 g/ha, Postemergence",1
same,"Plant response rating, Velvetleaf","[14]; Rate 125 g/ha, Preemergence",0
same,"Plant response rating, Velvetleaf","[14]; Rate 250 g/ha, Postemergence",1
same,"Plant response rating, Velvetleaf",[14]; [21],0
same,Wheat plant response rating,"[15]; Rate 62 g/ha, Postemergence",0
same,Wheat plant response rating,"[15]; Rate 62 g/ha, Preemergence",0
same,Wheat plant response rating,"[15]; Rate 125 g/ha, Postemergence",1
same,"Plant response rating, Wheat","[15]; Rate 125 g/ha, Preemergence",0
same,"Plant response rating, Wheat","[15]; Rate 250 g/ha, Postemergence",1
same,"Plant response rating, Wheat",[15]; [21],0
same,"Plant response rating, Corn","[16]; Rate 62 g/ha, Postemergence",1
same,Corn plant response rating,[16]; Rate 62 g/ha,0
same,"Plant response rating, Corn","[16]; Rate 125 g/ha, Postemergence",1
same,Corn plant response rating,[16]; Rate 125 g/ha,0
same,"Plant response rating, Corn","[16]; Rate 250 g/ha, Postemergence",1
same,"Plant response rating, Corn",[16]; [21],0
same,"Plant response rating, S. Flatsedge",[17]; [22],0
same,S. Flatsedge plant response rating,[17]; [23],2
same,"Plant response rating, S. Flatsedge",[17]; [24],2
same,"Plant response rating, Rice",[18]; [22],0
same,Rice plant response rating,[18]; [23],0
same,"Plant response rating, Rice",[18]; [24],0
same,"Plant response rating, Ducksalad",[19]; [22],0
same,"Plant response rating, Ducksalad",[19]; [25],0
same,"Plant response rating, Ducksalad",[19]; [24],0
same,"Plant response rating, Barnyardgrass",[20]; [22],0
same,"Plant response rating, Barnyardgrass",[20]; [25],0
same,"Plant response rating, Barnyardgrass",[20]; [24],0
